Results published in patent US10711245B2, “Direct conversion method of human fibroblasts into neural stem cells using small molecules” (KOREA UNIVERSITY RESEARCH AND BUSINESS FOUNDATION, priority 2015, dated 2020).

system: human fibroblasts; experiment: Marker gene expression by quantitative PCR in human fibroblasts cultured with each single small-molecule compound; type: cell-based; conditions: each compound alone in neurobasal medium (DMEM/F12, N2, B27, bFGF, EGF), markers nestin, sox1, sox2, pax6
Protocol: To investigate the function of each of small-molecule compounds and find an optimal combination of small-molecule compounds, 1×10^5 human fibroblasts were prepared in 60 mm dishes, and on the next day, the cells were cultured in a neurobasal medium (containing DMEM/F12, N2, B27, bFGF, and EGF) supplemented with each of 13 different small-molecule compounds (PD0325901, SB431542, Thiazovivin, Ascorbic acid, PS48, CHIR99021, Deazaneplanocin A, Valproic acid, Forskolin, Tranylcypromine, A8301, 5-AZA, and Purmorphamine). Then, the morphological changes of the cells were observed while the medium was replaced at 2-3-day intervals (FIG. 1). The cells were subcultured at 5-day intervals, and in this stage, the cells were sampled in order to examine gene expression patterns therein. Using the cell sample, the expression patterns of a fibroblast marker (Thy1), neural stem cell markers (nestin, sox1, sox2, pax6), a MET or EMT marker (snail, N-cadherin, E-cadherin), endodermal and mesodermal markers (AFP, GATA4), and a marker (Zsacn4) associated with the maintenance of chromosomal stability, in the cell sample, were analyzed by quantitative PCR (FIG. 2).

| SMILES | expressions of the neural stem cell marker genes |
| --- | --- |
| Nc1ncn([C@@H]2O[C@H](CO)[C@@H](O)[C@H]2O)c(=O)n1 [5-AZA, 4-amino-1-β-D-ribofuranosyl-1,3,5-triazin-2(1H)-one] | distinctly increased |
| Cc1cccc(-c2nn(C(=S)Nc3ccccc3)cc2-c2ccnc3ccccc23)n1 [A8301, 3-(6-Methyl-2-pyridinyl)-N-phenyl-4-(4-quinolinyl)-1H-pyrazole-1-carbothioamide] | distinctly increased |
| Cc1cnc(-c2cnc(NCCNc3ccc(C#N)cn3)nc2-c2ccc(Cl)cc2Cl)[nH]1 [CHIR99021, 6-[[2-[[4-(2,4-dichlorophenyl)-5-(5-methyl-1H-imidazol-2-yl)-2-pyrimidinyl]amino]ethyl]amino]-3-pyridinecarbonitrile] | distinctly increased |
| Nc1nccc2c1ncn2[C@@H]1C=C(CO)[C@@H](O)[C@H]1O [Deazaneplanocin A, 5R-(4-amino-1H-imidazo[4,5-c]pyridin-1-yl)-3-(hydroxymethyl)-3-cyclopentene-1S,2R-diol] | distinctly increased |
| NC(=O)c1ccc(-c2nc(-c3ccc4c(c3)OCO4)c(-c3ccccn3)[nH]2)cc1 [SB431542, 4-[4-(3,4-Methylenedioxyphenyl)-5-(2-pyridyl)-1H-imidazol-2-yl]benzamide] | distinctly increased |
| O=C(NCc1ccccc1)c1csc(Nc2ccncn2)n1 [Thiazovivin, N-(phenylmethyl)-2-(4-pyrimidinylamino)-4-thiazolecarboxamide] | distinctly increased |
| CCCC(CCC)C(=O)O [Valproic acid, 2-propyl-pentanoic acid] | distinctly increased |
